Source: publication PMC2113498 (The Journal of Cell Biology, 1985)

Columns and labels:
[1] = tested on: a-toxin binding to the receptor, extracted membranes; experiment: Inhibition of a-toxin labeling of membranes; set-up: species or system Torpedo californica; details: 10 mM carbamylcholine added to the solutions of the toxin; Fig. 6H
[2] = tested on: mab 264E / AChR; experiment: Inhibition of binding of mab 264E to AChR by peptides; set-up: species or system Torpedo nobiliana; details: ELISA; tested at concentrations exceeding 36 uM
[3] = tested on: mab 274D / AChR; experiment: Inhibition of binding of mab 274D to AChR by peptides; set-up: species or system Torpedo nobiliana; details: ELISA; tested at concentrations exceeding 36 uM

Row | Molecule | labeling of a-toxin sites in presence of competitor [1] | inhibition of binding of mab 264E to AChR [2] | inhibition of binding of mab 274D to AChR [3]
1 | C[N+](C)(C)CCOC(N)=O.[Cl-] [carbamylcholine] | substantially reduced the labeling | – | –
2 | Ac-PFEGDPFDYSSDHPRG-OH [Delta-peptide 485-499] | – | failed to inhibit the binding of either mab | failed to inhibit the binding of either mab
